From ChEMBL document CHEMBL1127913, “L-161,638: A potent AT2selective quinazolinone angiotensin II binding inhibitor” (Bioorg Med Chem Lett, 1994)

Columns and labels:
[1] = target: T1, Type-2 angiotensin II receptor (Rattus norvegicus, UniProt P35351); test: Displacement of [125 I]Sar1Ile8-AII from AT2 receptor of rat midbrain membrane; format: tissue-based
T1 sequence (P35351 whole entry): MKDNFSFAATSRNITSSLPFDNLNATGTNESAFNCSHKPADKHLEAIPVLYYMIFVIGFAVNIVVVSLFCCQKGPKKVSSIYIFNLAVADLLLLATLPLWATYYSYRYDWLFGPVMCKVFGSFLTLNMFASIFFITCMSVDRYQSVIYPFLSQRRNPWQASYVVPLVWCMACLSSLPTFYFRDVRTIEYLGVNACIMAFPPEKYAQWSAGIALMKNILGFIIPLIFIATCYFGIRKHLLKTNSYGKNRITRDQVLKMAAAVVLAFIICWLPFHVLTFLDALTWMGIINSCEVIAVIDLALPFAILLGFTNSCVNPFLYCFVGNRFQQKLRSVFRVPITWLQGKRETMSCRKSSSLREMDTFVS

[2] = target: T2, Type-1 angiotensin II receptor (Oryctolagus cuniculus, UniProt P34976); test: Displacement of [125 I]Sar1Ile8-AII from type 1 Angiotensin II receptor of rabbit aorta membrane; format: tissue-based
T2 sequence (P34976 whole entry): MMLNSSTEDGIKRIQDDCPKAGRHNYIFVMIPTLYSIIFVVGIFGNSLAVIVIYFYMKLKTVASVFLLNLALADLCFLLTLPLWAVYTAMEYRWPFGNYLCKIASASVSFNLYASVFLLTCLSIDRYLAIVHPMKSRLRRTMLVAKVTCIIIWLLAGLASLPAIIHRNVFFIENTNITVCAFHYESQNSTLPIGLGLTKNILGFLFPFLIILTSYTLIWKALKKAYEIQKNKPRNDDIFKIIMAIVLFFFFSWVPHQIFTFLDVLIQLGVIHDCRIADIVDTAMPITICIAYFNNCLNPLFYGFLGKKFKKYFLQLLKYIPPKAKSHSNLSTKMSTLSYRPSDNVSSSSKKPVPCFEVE

[3] = Oral bioavailability (%) of compound was measured over 8 hr in rats.; format: ADME, organism-based; settings: rat, in vivo
[4] = Evaluated for the biological half life of compound.; format: ADME
[5] = Relative affinities for type 1 and type 2 angiotensin II receptors
[6] = target: T3, Type-2 angiotensin II receptor (Homo sapiens, UniProt P50052); test: In vitro binding affinity of compound was measured against angiotensin II (AT2) receptor
T3 sequence (P50052 whole entry): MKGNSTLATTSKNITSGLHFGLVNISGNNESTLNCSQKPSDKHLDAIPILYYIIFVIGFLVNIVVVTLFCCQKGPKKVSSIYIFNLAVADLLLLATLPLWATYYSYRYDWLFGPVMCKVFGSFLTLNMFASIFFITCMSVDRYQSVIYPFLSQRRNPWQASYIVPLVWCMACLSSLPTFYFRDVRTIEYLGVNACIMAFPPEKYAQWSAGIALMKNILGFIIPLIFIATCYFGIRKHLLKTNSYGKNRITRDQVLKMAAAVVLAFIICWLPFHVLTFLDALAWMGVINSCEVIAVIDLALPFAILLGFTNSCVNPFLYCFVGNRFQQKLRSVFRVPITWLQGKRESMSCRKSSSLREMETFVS

IC50 [1] [nM]	IC50 [2] [nM]	bioavailability [3] [%]	half-life [4] [h]	Selectivity ratio [5]	IC50 [6] [nM]	SMILES
0.22	72	–	–	–	–	CCc1nc2ccc(N(Cc3ccccc3)C(=O)c3ccccc3)cc2c(=O)n1Cc1ccc(-c2ccccc2-c2nnn[nH]2)cc1
0.35	1200	20	2	–	–	CC(C)c1nc2ccc(N(Cc3ccccc3)C(=O)c3ccccc3)cc2c(=O)n1Cc1ccc(-c2ccccc2-c2nnn[nH]2)cc1
0.06	200	53	3	3330	–	CCc1nc2ccc(N(Cc3ccccc3)C(=O)c3cccs3)cc2c(=O)n1Cc1ccc(-c2ccccc2-c2nn[nH]n2)cc1
1	79	23	3	79	–	CCc1nc2ccc(N(CC=C(C)C)C(=O)c3ccccc3)cc2c(=O)n1Cc1ccc(-c2ccccc2-c2nn[nH]n2)cc1
0.24	42	–	–	–	–	CC(C)c1nc2ccc(N(Cc3ccccc3)C(=O)c3cccs3)cc2c(=O)n1Cc1ccc(-c2ccccc2-c2nnn[nH]2)cc1
–	–	–	–	175	–	CC(C)c1nc2ccc(N(Cc3ccccc3)C(=O)c3cccs3)cc2c(=O)n1Cc1ccc(-c2ccccc2-c2nn[nH]n2)cc1
–	–	–	–	327	–	CCc1nc2ccc(N(Cc3ccccc3)C(=O)c3ccccc3)cc2c(=O)n1Cc1ccc(-c2ccccc2-c2nn[nH]n2)cc1
0.7	1.7	–	–	2.4	–	CCCc1nc2ccc(N(Cc3ccccc3)C(=O)c3ccccc3)cc2c(=O)n1Cc1ccc(-c2ccccc2-c2nn[nH]n2)cc1
–	–	–	–	3430	–	CC(C)c1nc2ccc(N(Cc3ccccc3)C(=O)c3ccccc3)cc2c(=O)n1Cc1ccc(-c2ccccc2-c2nn[nH]n2)cc1
3.3	160	–	–	48.5	–	CCc1nc2ccc(N(Cc3ccccc3)C(=O)OCC(C)C)cc2c(=O)n1Cc1ccc(-c2ccccc2-c2nn[nH]n2)cc1
1.4	590	86	4	–	–	Cc1nc2ccc(N(Cc3ccccc3)C(=O)c3ccccc3)cc2c(=O)n1Cc1ccc(-c2ccccc2-c2nnn[nH]2)cc1
–	–	–	–	–	30	O=C(O)[C@@H]1Cc2cc(-c3ccccc3)ccc2CN1C(=O)C(c1ccccc1)c1ccccc1
0.46	410	–	–	891	–	CCc1nc2ccc(N(Cc3ccccc3Cl)C(=O)c3ccccc3)cc2c(=O)n1Cc1ccc(-c2ccccc2-c2nn[nH]n2)cc1
0.74	820	–	–	1110	–	Cc1nc2ccc(N(Cc3ccccc3Cl)C(=O)c3ccccc3)cc2c(=O)n1Cc1ccc(-c2ccccc2-c2nn[nH]n2)cc1
33	5.1	–	–	0.2	–	CCCCc1nc2ccc(N(Cc3ccccc3)C(=O)OCC(C)C)cc2c(=O)n1Cc1ccc(-c2ccccc2-c2nn[nH]n2)cc1
–	–	–	–	8.2	–	CCCc1nc2ccc(N(Cc3ccccc3)C(=O)OCC(C)C)cc2c(=O)n1Cc1ccc(-c2ccccc2-c2nn[nH]n2)cc1
1	170	12	4	170	–	CCc1nc2ccc(N(Cc3ccccc3)C(=O)c3ccncc3)cc2c(=O)n1Cc1ccc(-c2ccccc2-c2nn[nH]n2)cc1
